Molecules are shown by their SMILES.

For the assay, the target named is T1, human IL-17AA (Homo sapiens, UniProt Q16552).
T1 construct: host or cells: HEK (human embryonic kidney) cells
T1 sequence (Q16552 24-155) 1: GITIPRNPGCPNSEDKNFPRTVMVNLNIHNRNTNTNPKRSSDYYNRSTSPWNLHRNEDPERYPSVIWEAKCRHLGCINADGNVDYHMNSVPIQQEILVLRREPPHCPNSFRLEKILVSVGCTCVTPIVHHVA
T1 sequence (Q16552 24-155) 2: T1 sequence (Q16552 24-155) 1
Kind of assay: IL-8 release assay in human epithelial keratinocytes adult (HEKa). It counts as cell-based. The note with it: 3 ng/ml human IL-17AA + 10 ng/ml human TNFalpha, 68-72 h, IL-8 by HTRF, read-out: Rel EC50 L-8 release assay. A digest of the protocol: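 IL-8 secretion, quantified by HTRF (665/620 nm) as percent of controls, served as the readout after 68–72 h culture of HEKa cells with compound plus IL-17AA (3 ng/ml final) and TNF-alpha (10 ng/ml final). Four-parameter logistic curves gave relative IC50 and Emax.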
On the technique in general: Time-resolved FRET reads energy transfer from a long-lived donor to a nearby acceptor.
The EC50 is the concentration that produces a half-maximal response. Take `CN(c1cc(-c2ccc(Cl)c(CC(NC(=O)c3ccnn3C)C(=O)Nc3ccc(-c4cncn4C)cc3)c2)ccn1)C1CC1` (stereo not drawn) [Example 150, N-[1-[[2-chloro-5-[2-[cyclopropyl(methyl)amino]-4-pyridyl]phenyl]methyl]-2-[4-(3-methylimidazol-4-yl)anilino]-2-oxo-ethyl]-2-methyl-pyrazole-3-carboxamide]: the EC50 was below 100 nM.

As for `Cc1n[nH]c(C)c1-c1ccc(NC(=O)[C@@H](NC(=O)C2(F)CC2)[C@@H]2CCc3ccc(-c4cc(N5CC(F)(F)C5)ncn4)cc32)cc1` [Example 375, N-[(1S)-1-[(1R)-6-[6-(3,3-difluoroazetidin-1-yl)pyrimidin-4-yl]indan-1-yl]-2-[4-(3,5-dimethyl-1H-pyrazol-4-yl)anilino]-2-oxo-ethyl]-1-fluoro-cyclopropanecarboxamide], the EC50 was in the range of 100 to 1000 nM.

Regarding `Cc1cc(-c2ccc3c(c2)[C@H]([C@H](NC(=O)C2(F)CC2)C(=O)Nc2ccc(-n4ccnc4C)cc2)CCC3)cn(C(C)C)c1=O` [Example 406, 1-fluoro-N-[(1S)-1-[(1R)-7-(1-isopropyl-5-methyl-6-oxo-3-pyridyl)tetralin-1-yl]-2-[4-(2-methylimidazol-1-yl)anilino]-2-oxo-ethyl]cyclopropanecarboxamide], the EC50 fell in the range of 100 to 1000 nM.

Regarding `Cc1n[nH]c(C)c1-c1ccc(NC(=O)[C@@H](NC(=O)c2ccnn2C)[C@@H]2CCc3ccc(-c4ccc(CN5CCC5)cc4)cc32)cc1` [Example 21, N-[(1S)-1-[(1R)-6-[4-(azetidin-1-ylmethyl)phenyl]indan-1-yl]-2-[4-(3,5-dimethyl-1H-pyrazole-4-yl)anilino]-2-oxo-ethyl]-2-methyl-pyrazole-3-carboxamide], the EC50 was below 100 nM.

For `Cn1cncc1-c1ccc(NC(=O)C(Cc2cc(-c3ccnc(N4CC(N)C4)c3)ccc2Cl)NC(=O)c2ccnn2C)cc1` (stereo not drawn) [Example 195, N-[1-[[5-[2-(3-aminoazetidin-1-yl)-4-pyridyl]-2-chloro-phenyl]methyl]-2-[4-(3-methylimidazol-4-yl)anilino]-2-oxo-ethyl]-2-methyl-pyrazole-3-carboxamide], the EC50 is 100 to 1000 nM.

On to `CCCC(=O)N[C@@H](Cc1cc(-c2ccc(=O)n(C(C)C)c2)ccc1Cl)C(=O)Nc1ccc(-c2c(C)cnn2C)cc1` [Example 330, N-[(1S)-1-[[2-chloro-5-(1-isopropyl-6-oxo-3-pyridyl)phenyl]methyl]-2-[4-(2,4-dimethylpyrazol-3-yl)anilino]-2-oxo-ethyl]butanamide], for which the EC50 is 100 to 1000 nM.

On to `Cn1cncc1-c1ccc(NC(=O)C(Cc2cc(-c3ccnc(N4CC[C@@H](CO)C4)c3)ccc2Cl)NC(=O)c2ccnn2C)cc1` (stereo partly drawn) [Example 186, N-[1-[[2-chloro-5-[2-[(3R)-3-(hydroxymethyl)pyrrolidin-1-yl]-4-pyridyl]phenyl]methyl]-2-[4-(3-methylimidazol-4-yl)anilino]-2-oxo-ethyl]-2-methyl-pyrazole-3-carboxamide], for which the EC50 fell in the range of 100 to 1000 nM.

Turning to `Cc1n[nH]c(C)c1-c1ccc(NC(=O)[C@@H](NC(=O)C2(F)CC2)[C@@H]2CCc3ccc(-c4cnnc(C5CC5)c4)cc32)cc1` [Example 381, N-[(1S)-1-[(1R)-6-(6-cyclopropylpyridazin-4-yl)indan-1-yl]-2-[4-(3,5-dimethyl-1H-pyrazol-4-yl)anilino]-2-oxo-ethyl]-1-fluoro-cyclopropanecarboxamide], the EC50 lay in the range of 100 to 1000 nM.

On to `CC(C)n1cc(-c2ccc(Cl)c(C[C@H](NC(=O)c3ccnn3C)C(=O)Nc3ccc(-c4cncn4C)c(F)c3)c2)ccc1=O` [Example 135, N-[(1S)-1-[[2-chloro-5-(1-isopropyl-6-oxo-3-pyridyl)phenyl]methyl]-2-[3-fluoro-4-(3-methylimidazol-4-yl)anilino]-2-oxo-ethyl]-2-methyl-pyrazole-3-carboxamide], for which the EC50 was in the range of 100 to 1000 nM.

Source of the values: US20220162191A1, “SMALL MOLECULE MODULATORS OF IL-17” (LEO PHARMA A/S, priority 2019, published 2022).
